Reference: patent publication US20040023945A1, “CYCLIC AMP-SPECIFIC PHOSPHODIESTERASE INHIBITORS” (ICOS Corporation, priority 1999, published 2004)

Tested on: human peripheral blood lymphocytes
Assay: Lipopolysaccharide-stimulated TNFα release from human peripheral blood lymphocytes
Format: cell-based
Conditions: Homo sapiens, Lymphocyte, LPS-stimulated TNFα release from human PBL; read-out: PBL/TNFα EC50
Method: The compounds of structural formula (II) also were tested for an ability to reduce TNFα secretion in human peripheral blood lymphocytes. The ability to reduce TNFα secretion is related to the EC50 values (i.e., the effective concentration of the compound capable of inhibiting 50% of the total TNFα).
To assess the ability of a compound to reduce TNFα secretion in human peripheral blood lymphocytes (PBL), the following tests were performed.
Heparinized blood (approximately 30 mL) drawn from human volunteers was mixed 1:1 with Dulbecco's modified phosphate-buffered saline. This mixture was mixed 1:1 with HISTOPAQUE® and centrifuged at 1,500 rpm at room temperature without braking in the swinging bucket of a Beckman model TJ6 centrifuge. Erythrocytes were centrifuged to the bottom of the tubes, and serum remained at the surface of the tubes. A layer containing lymphocytes sedimented between the serum and HISTOPAQUE® layers, and was removed by aspiration to a fresh tube. The cells were quantified and adjusted to 3×10^6 cells/mL and a 100 μL aliquot is placed into the wells of a 96 well plate. Test compounds and RPMI media (Gibco/BRL Life Sciences) are added to each of the wells 15 minutes prior to addition of bacterial LPS ([…]). The mixture was allowed to incubate for 20 hours at 37° C. in a humidified chamber. The cells then were separated by centrifuging at 800 rpm for 5 minutes at room temperature. An aliquot of 180 μL of supernatant was transferred to a new plate for determination of TNFα concentration. TNFα protein in the cell supernatant fluids was measured using a commercially available enzyme-linked immunosorbent assay (ELISA) (CYTOSCREEN® Immunoassay Kit from Biosource International).
The cell-based assay provided the following results for various pyrrolidine compounds of the present invention. The EC50 values (i.e., effective concentration of the compound capable of inhibiting 50% of the total TNFα) illustrate the ability of the present compounds to inhibit LPS-stimulated TNFα release from human PBL.

| Structure (SMILES) | EC50 |
| --- | --- |
| COC(=O)N1C[C@@H](c2ccc(OC)c(OC3CCCC3)c2)[C@](C)(C(C)(C)O)C1 (racemic) [Example 1, (±)-4-(3-Cyclopentyloxy-4-methoxyphenyl)-3-(1-hydroxy-1-methylethyl)-3-methylpyrrolidine-1-carboxylic acid methyl ester] | 1210 nM |
| COC(=O)N1C[C@@H](c2ccc(OC)c(OC3Cc4ccccc4C3)c2)[C@](C)(C(C)O)C1 (mixture of isomers) [Example 4, trans-(±)-3-(1-Hydroxyethyl)-4-[3-(indan-2-yloxy)-4-methoxyphenyl]-3-methylpyrrolidine-1-carboxylic acid methyl ester] | 3610 nM |
| COC(=O)N1C[C@@H](c2ccc(OC)c(OC(C)CCc3ccccc3)c2)[C@](C)(C(C)O)C1 (relative stereo) [Example 6, trans-3-(1-Hydroxyethyl)-4-(4-methoxy-3-(1-methyl-3-phenylpropoxy)phenyl]-3-methylpyrrolidine-1-carboxylic acid methyl ester] | 3660 nM |
| COc1ccc([C@@H]2CN(C(=O)C(O)c3ccccc3)CC2(C)[C@@H](C)O)cc1OC1CCCC1 (stereo in doubt) [Example 63, 1-((3R)-3-((1R)-1-Hydroxyethyl)-4-(3-cyclopentyloxy-4-methoxyphenyl)-3-methylpyrrolidinyl]-2-hydroxy-2-phenylethan-1-one] | 267 nM |
| COc1ccc([C@@H]2CN(C(=O)CO)C[C@@]2(C)C(C)(C)O)cc1OCC1CC1 [Example 2, 1-[4-(S)-(3-Cyclopropylmethoxy-4-methoxyphenyl)-3-(1-hydroxy-1-methylethyl)-3-(S)-methylpyrrolidin-1-yl]-2-hydroxyethanone] | 1900 nM |
| COC(=O)N1C[C@@H](c2ccc(OC)c(OC3CC4CCC3C4)c2)[C@](C)(C(C)O)C1 (stereo partly drawn) [Example 5, trans 4-[3-Exo-(Bicyclo[2.2.1]hept-2-yloxy)-4-methoxyphenyl]-3-(1-hydroxyethyl)-3-methylpyrrolidine-1-carboxylic acid methyl ester] | 1550 nM |
| COc1ccc([C@@H]2CN(c3cccnc3)C[C@@]2(C)[C@@H](C)O)cc1OC1Cc2ccccc2C1 [Example 32, (1R)-1-[(3S,4S)-4-(3-Indan-2-yloxy-4-methoxyphenyl)-3-methyl-1-(3-pyridyl)pyrrolidin-3-yl]ethan-1-ol] | 801 nM |
| COc1ccc([C@@H]2CN(c3ccccn3)C[C@@]2(C)[C@@H](C)O)cc1OC1CCCC1 [Example 34, (1R)-1-[(3S,4S)-4-(3-Cyclopentyloxy-4-methoxyphenyl)-3-methyl-1-(2-pyridyl)pyrrolidin-3-yl]ethan-1-ol] | 250 nM |
| COc1ccc([C@@H]2CN(c3cccnc3)C[C@@]2(C)[C@@H](C)O)cc1OC1CCCC1 [Example 35, (1R)-1-[(3S,4S)-4-(3-Cyclopentyloxy-4-methoxyphenyl)-3-methyl-1-(3-pyridyl)pyrrolidin-3-yl]ethan-1-ol] | 20.3 nM |
| COc1ccc([C@@H]2CN(C(=O)COCc3ccccc3)C[C@@]2(C)[C@@H](C)O)cc1OC1CCCC1 [Example 64, 1-[3-((1R)-1-Hydroxyethyl)(3S,4S)-4-(3-cyclopentyloxy-4-methoxyphenyl)-3-methylpyrrolidinyl]-2-(phenylmethoxy)ethan-1-one] | 36.2 nM |
| COc1ccc([C@@H]2CN(C(=O)CO)C[C@@]2(C)[C@@H](C)O)cc1OC1CCCC1 [Example 65, 1-(3-((1R)-1-Hydroxyethyl)(3S,4S)-4-(3-cyclopentyloxy-4-methoxyphenyl)-3-methylpyrrolidinyl]-2-hydroxyethan-1-one] | 181 nM |
| COc1ccc([C@@H]2CN(C(=O)C(C)(C)OC(C)=O)C[C@@]2(C)[C@@H](C)O)cc1OC1CCCC1 [Example 70, 2-(3-((1R)-1-Hydroxyethyl)(3S,4S)-4-(3-cyclopentyloxy-4-methoxyphenyl) -3-methylpyrrolidinyl]-1,1-dimethyl-2-oxoethyl acetate] | 547 nM |
